Thermal shift and Kd data for one compound are collected here from paper PMC9564936 (Proceedings of the National Academy of Sciences of the …, 2022).

pKd: −log10 of the molar value.

Assay [1] addresses T1, EF-P (A1S_2419) (Acinetobacter baumannii, UniProt A3M7E3).
T1 sequence (A3M7E3 1-189): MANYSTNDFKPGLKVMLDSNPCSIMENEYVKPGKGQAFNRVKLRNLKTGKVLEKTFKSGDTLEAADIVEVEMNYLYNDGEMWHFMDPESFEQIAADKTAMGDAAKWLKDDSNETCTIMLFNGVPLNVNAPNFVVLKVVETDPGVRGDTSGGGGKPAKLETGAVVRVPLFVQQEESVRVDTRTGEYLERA
Put plainly: differential scanning fluorimetry. Type of assay: binding. As to conditions: 500 µM c-di-GMP.

For assay [2], the target named is T1, EF-P (A1S_2419). Briefly: isothermal titration calorimetry. Type of assay: binding.
The target of assay [3] is EF-P of A. albensis.

Take `Nc1nc2c(ncn2[C@@H]2O[C@@H]3COP(=O)(O)O[C@H]4[C@@H](O)[C@H](n5cnc6c(=O)[nH]c(N)nc65)O[C@@H]4COP(=O)(O)O[C@H]3[C@H]2O)c(=O)[nH]1` [c-di-GMP, bis-(3′-5′)-cyclic guanosine monophosphate]: the thermal shift entry in assay [1] is listed as “The DSF assay showed a marked shift in the melting curve of EF-P”. In addition, the pKd was 5.23 in assay [2] and 4.97 in assay [3].
